Converted amounts (≈) assume the structure as drawn. Like-named read-outs stand apart in the source and are kept apart here.
Tests used:
PARP4 = molecular target: T1, PARP4 (Homo sapiens, UniProt Q9UKK3); test: PARP4 biochemical assay; settings: > under 50% inhibition
T1 construct: made in house
Description: (§1) All reactions were performed at ambient temperature.
(§2) The assay conditions for the other PARP enzymes were used as previously described.[39]

PARP1/2/3/4/10/12/14/15 = test: PARP enzyme panel, summary line of Table 5; format: biochemical; settings: one bound for all eight PARPs
Description: as §1, §2

in vitro = in vitro ADME; settings: human, Caco-2
Description: (§3) Kinetic solubility, microsomal stability, and plasma stability were determined following our internal protocol (Symeres). The Caco-2 and PPB determinations were performed by Cyprotex.

mouse plasma stability = format: in vitro ADME; settings: read-out: mouse plasma stability t1/2
Description: as §3

[1] = test system: Cerep Safety panel 44 targets; test: Cerep safety panel of 44 selected targets; settings: 10 μM
Description: (§4) A safety panel (Cerep) of 44 selected targets (n = 2) including hERG Inhibition using 10 μM 24 was performed by Eurofins. Ames and CYP3A4 inhibition assays were performed by Cyprotex, and the PXR assay (CYP induction) was performed at Admescope. The PARP assays are described below.

PARP14 = molecular target: T2, PARP14 (Homo sapiens, UniProt Q460N5); test: PARP14 biochemical assay; settings: > under 50% inhibition
T2 construct: made in house
Description: as §1, §2

PARP2 = molecular target: T3, PARP2 (Homo sapiens, UniProt Q9UGN5); test: PARP2 biochemical assay; settings: > under 50% inhibition
T3 construct: made in house
Description: as §1, §2

TNKS1 = molecular target: T4, TNKS1 (Homo sapiens, UniProt O95271); test: TNKS1 biochemical assay (unreacted NAD+ fluorescence); settings: TNKS1 20 nM, 10 μM NAD+, 20 h
T4 construct: TNKS1 (residues 1030–1317); made in house
Description: New compounds were prepared in half-log dilution series, and the reactions were carried out in quadruplicates with protein and compound controls to exclude the effect of compound autofluorescence. All reactions were performed at ambient temperature. TNKS1 (20 nM) or TNKS2 (5 nM) was incubated for 20 h in assay buffer (50 mM Bis-Tris propane (BTP), pH 7.0, 0.5 mM Tris(2-carboxyethyl)phosphine (TCEP), 0.01% Triton X-100) with compound and 10 μM or 500 nM NAD^+, respectively.

kinetic solubility = format: physicochemical; settings: PBS pH = 7
Description: as §3

hERG = molecular target: T5, hERG (Homo sapiens, UniProt Q12809); test: hERG inhibition
T5 construct: Eurofins (Cerep), contract assay
Description: as §4

COLO 320DM cells [2] = test: real-time qRT-PCR of WNT/β-catenin target genes in COLO 320DM cells; format: cell-based, human; settings: dose-dependent
Description: (§5) After 5 days, the antiproliferative effect of compound treatment was measured at 490 nm. Mean value ± standard deviation (SD) for one representative experiment of more than three repeated assays, each with six replicates, are shown. […] (b) Representative immunoblots of cytoplasmic TNKS1/2, AXIN1, AXIN2, and cytoplasmic and nuclear transcriptionally active β-catenin (non-phospho) and β-catenin. […] For (b) and (c), control = 0.001% DMSO. (c) Real-time RT-qPCR analyses of WNT/β-catenin signaling target genes (AXIN2, DKK1, NKD1, and APCDD1). Boxplots show median, first and third quartiles, and maximum and minimum whiskers for combined data from three independent experiments with three replicates each. Dotted lines depict the control mean value = 1. For (a) and (c), analysis of variance (ANOVA) tests (Holm–Sidak method, versus control) are indicated by *** (p < 0.001) and * (p < 0.05), while ANOVA on ranks tests (Dunn’s method, versus control) are indicated by ^† (p < 0.05).

PARP15 = molecular target: T6, PARP15 (Homo sapiens, UniProt Q460N3); test: PARP15 biochemical assay; settings: >>: no inhibition detected; concentration limited by DMSO tolerance
T6 construct: made in house
Description: as §1, §2

[3] = mouse plasma protein binding; format: in vitro ADME; settings: read-out: mouse PPB (converted)
Description: as §3

[4] = microsomal stability, dog; format: in vitro ADME; settings: microsomes
Description: as §3

[5] = microsomal stability, mouse; format: in vitro ADME; settings: microsomes
Description: as §3

WNT/β-catenin signaling = test: cellular (HEK293) WNT/β-catenin signaling luciferase reporter assay; format: cell-based, human; settings: for IC50: Homo sapiens
Ames test = test: Ames test
Description: as §4

[6] = mouse peroral pharmacokinetic analysis; format: in vivo; settings: mouse PO 5 mg/kg
Description: The pharmacokinetic analyses in mice were performed according to the standard protocols of Medicilon as previously described[21] following approval by local animal experiment authorities (Shanghai, China) and in compliance with FELASA guidelines and recommendations. Three IRC mice were used per treatment group: 5 mg/kg 24 in 5% DMSO, 50% PEG400 (both Sigma-Aldrich), and 45% saline as vehicle.

COLO 320DM cells [7] = test: cells
Description: as §5
(§6) Antiproliferative assays using colon cancer cell lines COLO 320DM and RKO were performed as previously described.[39]

RKO cells = test: MTS colorimetric cell growth assay, RKO; format: cell-based, human
Description: as §5, §6

PARP12 = molecular target: T7, PARP12 (Homo sapiens, UniProt Q9H0J9); test: PARP12 biochemical assay; settings: >>: no inhibition detected; concentration limited by DMSO tolerance
T7 construct: made in house
Description: as §1, §2

human PXR = molecular target: T8, human PXR (Homo sapiens, UniProt O75469); test: PXR assay (CYP induction); format: in vitro ADME; settings: highest concentration, 100 μM
T8 construct: Admescope, contract assay
Description: as §4

PARP10 = molecular target: T9, PARP10 (Homo sapiens, UniProt Q53GL7); test: PARP10 biochemical assay; settings: >>: no inhibition detected
T9 construct: made in house
Description: as §1, §2

CYP3A4 = molecular target: T10, CYP3A4 (Homo sapiens, UniProt P08684); test: CYP3A4 inhibition; format: in vitro ADME
T10 construct: Cyprotex, contract assay
Description: as §4

[8] = microsomal stability, human; format: in vitro ADME; settings: microsomes
Description: as §3

T4 sequence (O95271 1030-1317): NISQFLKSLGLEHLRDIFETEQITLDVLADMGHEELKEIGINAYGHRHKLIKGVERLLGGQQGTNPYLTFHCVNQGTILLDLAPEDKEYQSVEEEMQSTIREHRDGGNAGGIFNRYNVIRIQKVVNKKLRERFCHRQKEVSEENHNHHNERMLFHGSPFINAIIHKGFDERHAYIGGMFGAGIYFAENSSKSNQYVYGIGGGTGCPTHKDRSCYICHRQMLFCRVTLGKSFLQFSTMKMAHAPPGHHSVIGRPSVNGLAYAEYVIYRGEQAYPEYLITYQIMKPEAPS
T7 sequence (Q9H0J9 whole entry): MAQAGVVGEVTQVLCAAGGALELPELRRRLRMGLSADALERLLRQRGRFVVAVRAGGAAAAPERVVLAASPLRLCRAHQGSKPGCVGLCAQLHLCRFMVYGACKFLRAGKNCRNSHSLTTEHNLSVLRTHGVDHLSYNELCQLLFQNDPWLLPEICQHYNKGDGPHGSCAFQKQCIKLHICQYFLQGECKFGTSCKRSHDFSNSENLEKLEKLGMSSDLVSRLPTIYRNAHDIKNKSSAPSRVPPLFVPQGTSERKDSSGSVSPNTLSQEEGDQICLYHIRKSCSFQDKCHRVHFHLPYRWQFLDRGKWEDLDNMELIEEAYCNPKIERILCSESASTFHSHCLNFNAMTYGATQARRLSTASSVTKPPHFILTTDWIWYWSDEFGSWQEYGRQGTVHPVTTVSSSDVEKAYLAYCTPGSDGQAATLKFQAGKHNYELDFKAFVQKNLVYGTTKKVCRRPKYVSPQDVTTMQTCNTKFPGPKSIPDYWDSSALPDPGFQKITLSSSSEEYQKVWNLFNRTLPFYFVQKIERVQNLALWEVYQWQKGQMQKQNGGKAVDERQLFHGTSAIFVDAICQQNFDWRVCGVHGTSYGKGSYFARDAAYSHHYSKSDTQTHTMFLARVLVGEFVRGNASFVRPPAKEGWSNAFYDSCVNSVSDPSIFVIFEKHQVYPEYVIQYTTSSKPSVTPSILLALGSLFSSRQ
T10 sequence (P08684 whole entry): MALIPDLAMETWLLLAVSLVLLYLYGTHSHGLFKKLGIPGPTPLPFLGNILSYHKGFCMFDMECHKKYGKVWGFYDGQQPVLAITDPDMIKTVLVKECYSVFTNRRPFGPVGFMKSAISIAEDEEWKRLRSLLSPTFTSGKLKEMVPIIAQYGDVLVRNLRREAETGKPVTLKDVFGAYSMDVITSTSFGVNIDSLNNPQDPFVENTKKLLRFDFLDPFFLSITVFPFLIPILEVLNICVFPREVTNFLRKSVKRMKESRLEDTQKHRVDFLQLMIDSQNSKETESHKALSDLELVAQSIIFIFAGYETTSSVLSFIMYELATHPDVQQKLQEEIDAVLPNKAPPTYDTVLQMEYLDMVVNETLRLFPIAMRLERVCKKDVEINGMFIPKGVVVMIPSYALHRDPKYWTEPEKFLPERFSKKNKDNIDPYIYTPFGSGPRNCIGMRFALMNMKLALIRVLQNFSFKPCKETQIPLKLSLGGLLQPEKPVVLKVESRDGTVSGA
T5 sequence (Q12809 whole entry): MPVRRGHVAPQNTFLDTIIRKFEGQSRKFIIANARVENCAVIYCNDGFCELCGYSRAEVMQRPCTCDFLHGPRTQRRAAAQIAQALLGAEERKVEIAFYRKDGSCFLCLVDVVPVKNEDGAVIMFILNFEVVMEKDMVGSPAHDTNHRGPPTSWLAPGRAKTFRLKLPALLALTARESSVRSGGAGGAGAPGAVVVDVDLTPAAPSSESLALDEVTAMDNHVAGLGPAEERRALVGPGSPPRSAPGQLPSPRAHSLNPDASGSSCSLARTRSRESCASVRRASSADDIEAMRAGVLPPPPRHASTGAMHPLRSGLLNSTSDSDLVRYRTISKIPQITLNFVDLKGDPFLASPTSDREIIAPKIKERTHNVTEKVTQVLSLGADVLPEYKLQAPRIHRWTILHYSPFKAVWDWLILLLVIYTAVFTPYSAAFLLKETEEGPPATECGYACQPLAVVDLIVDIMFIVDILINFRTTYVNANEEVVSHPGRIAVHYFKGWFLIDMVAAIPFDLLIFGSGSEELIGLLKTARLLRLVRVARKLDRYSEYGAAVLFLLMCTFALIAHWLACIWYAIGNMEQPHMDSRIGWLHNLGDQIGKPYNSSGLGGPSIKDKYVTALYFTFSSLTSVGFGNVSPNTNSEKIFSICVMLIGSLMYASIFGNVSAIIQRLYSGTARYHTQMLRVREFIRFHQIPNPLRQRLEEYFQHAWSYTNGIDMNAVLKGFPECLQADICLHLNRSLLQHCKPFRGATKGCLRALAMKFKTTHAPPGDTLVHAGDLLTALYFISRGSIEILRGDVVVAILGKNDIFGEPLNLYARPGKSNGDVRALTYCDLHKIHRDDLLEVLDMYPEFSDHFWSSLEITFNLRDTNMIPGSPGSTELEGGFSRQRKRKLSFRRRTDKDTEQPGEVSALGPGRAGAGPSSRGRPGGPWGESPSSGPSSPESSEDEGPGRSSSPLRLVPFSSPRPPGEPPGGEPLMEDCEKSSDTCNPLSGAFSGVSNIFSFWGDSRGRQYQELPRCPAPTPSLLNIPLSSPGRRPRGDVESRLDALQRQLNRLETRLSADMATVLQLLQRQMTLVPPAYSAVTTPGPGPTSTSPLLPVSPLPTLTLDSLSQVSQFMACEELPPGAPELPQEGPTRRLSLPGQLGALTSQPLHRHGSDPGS
T2 sequence (Q460N5 whole entry): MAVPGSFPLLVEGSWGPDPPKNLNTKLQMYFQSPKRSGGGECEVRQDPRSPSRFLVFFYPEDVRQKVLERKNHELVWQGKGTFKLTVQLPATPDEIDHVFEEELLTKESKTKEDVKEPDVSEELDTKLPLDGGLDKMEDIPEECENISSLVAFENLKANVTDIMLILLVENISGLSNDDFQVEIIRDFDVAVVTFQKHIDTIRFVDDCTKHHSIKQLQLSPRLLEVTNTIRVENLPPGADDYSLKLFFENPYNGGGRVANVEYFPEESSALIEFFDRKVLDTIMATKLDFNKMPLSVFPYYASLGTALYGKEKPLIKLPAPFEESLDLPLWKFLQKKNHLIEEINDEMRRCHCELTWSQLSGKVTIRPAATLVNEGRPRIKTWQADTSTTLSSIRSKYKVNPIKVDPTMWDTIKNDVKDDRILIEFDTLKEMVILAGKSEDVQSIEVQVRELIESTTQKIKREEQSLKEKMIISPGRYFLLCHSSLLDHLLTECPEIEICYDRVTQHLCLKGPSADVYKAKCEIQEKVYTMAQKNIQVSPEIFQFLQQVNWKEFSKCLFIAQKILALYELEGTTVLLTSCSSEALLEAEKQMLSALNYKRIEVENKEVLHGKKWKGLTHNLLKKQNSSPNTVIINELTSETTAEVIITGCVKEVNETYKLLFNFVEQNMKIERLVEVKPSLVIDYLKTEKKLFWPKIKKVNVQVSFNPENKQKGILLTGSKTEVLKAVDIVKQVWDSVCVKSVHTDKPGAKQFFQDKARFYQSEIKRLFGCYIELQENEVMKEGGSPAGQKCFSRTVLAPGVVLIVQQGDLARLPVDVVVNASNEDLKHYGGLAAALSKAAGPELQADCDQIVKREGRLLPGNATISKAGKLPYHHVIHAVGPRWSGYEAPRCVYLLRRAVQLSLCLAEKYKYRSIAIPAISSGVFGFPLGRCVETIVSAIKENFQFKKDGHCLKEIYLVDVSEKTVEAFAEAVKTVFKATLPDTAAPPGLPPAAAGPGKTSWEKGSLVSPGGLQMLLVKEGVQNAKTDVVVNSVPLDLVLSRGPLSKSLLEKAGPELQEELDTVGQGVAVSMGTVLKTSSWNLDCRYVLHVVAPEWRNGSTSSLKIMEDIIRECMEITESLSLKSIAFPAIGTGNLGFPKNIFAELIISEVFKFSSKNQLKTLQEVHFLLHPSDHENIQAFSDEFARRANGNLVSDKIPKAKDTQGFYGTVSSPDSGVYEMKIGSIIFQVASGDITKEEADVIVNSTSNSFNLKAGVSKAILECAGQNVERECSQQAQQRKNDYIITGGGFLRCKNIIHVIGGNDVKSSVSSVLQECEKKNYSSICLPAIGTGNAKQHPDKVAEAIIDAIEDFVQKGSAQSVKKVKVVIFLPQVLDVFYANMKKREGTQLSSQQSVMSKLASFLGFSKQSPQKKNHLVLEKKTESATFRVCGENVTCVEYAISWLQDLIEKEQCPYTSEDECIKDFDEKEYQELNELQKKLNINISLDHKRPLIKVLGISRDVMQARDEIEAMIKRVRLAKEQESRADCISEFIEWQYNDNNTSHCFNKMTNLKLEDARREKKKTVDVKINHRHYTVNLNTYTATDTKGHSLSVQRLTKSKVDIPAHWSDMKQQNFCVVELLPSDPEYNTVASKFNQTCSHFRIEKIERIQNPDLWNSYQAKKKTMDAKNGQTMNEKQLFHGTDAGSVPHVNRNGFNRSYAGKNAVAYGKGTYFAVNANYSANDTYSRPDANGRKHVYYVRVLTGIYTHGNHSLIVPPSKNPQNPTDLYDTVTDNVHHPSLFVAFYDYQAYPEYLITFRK
T8 sequence (O75469 whole entry): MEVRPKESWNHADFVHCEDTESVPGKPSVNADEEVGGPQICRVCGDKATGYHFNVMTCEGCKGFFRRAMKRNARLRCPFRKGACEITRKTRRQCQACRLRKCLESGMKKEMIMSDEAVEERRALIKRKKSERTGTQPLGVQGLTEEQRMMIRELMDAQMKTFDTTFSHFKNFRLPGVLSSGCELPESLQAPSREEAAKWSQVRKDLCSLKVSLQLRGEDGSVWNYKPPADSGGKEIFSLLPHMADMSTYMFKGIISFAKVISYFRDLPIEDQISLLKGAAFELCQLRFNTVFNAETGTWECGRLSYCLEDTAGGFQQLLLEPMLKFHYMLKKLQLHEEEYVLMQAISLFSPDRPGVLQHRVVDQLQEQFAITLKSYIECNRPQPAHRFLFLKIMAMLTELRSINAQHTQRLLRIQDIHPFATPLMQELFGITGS

CCOc1ccc(-c2nnc([C@H]3C[C@H](NC(=O)c4cccc5nccnc45)C3)n2-c2ccccc2F)nc1 [Compound 24, N-(trans-3-(5-(5-Ethoxypyridin-2-yl)-4-(2-fluorophenyl)-4H-1,2,4-triazol-3-yl)cyclobutyl)quinoxaline-5-carboxamide]
IC50 (PARP4): > 100000 nM | IC50 (PARP1/2/3/4/10/12/14/15): > 10000 nM | Papp A→B at 2 h, 10 µM (in vitro): 40.5 ×10⁻⁶ cm/s | efflux ratio (in vitro): 0.64 | half-life (mouse plasma stability): > 2 h | Cerep Safety panel 44 targets (overall result) [1]: clean | Cerep Safety panel 44 targets inhibition, all targets ([1]; n = 2): < 50% | IC50 (PARP14): > 100000 nM | IC50 (PARP2): > 100000 nM | IC50 (TNKS1): 13 nM | TNKS1 pIC50 ± SEM (TNKS1): 7.90 ± 0.054 | solubility kinetic at 1 h (kinetic solubility): 31 µM (≈ 15.8 µg/mL) | IC50 (hERG): > 25000 nM | transcripts of WNT/β-catenin target genes AXIN2, DKK1, NKD1, APCDD1 (COLO 320DM cells [2]): reduced levels | IC50 (PARP15): > 10000 nM | fraction unbound [3]: 0.0142 | microsomal CLint at 1 h [4]: 3.8 µL/min/mg | microsomal CLint at 1 h [5]: 22 µL/min/mg | IC50 (WNT/β-catenin signaling; HEK293, read-out: HEK293 reporter assay pIC50 ± SEM (converted)): 0.603 nM | IC50 (WNT/β-catenin signaling; HEK293, read-out: IC50 HEK293, HEK293 WNT/β-catenin signaling reporter assay, triplicates, 24: averages of multiple independent measurements): 0.63 nM | efficacy in the cellular WNT/β-catenin signaling reporter assay relative to 1 (WNT/β-catenin signaling; times higher than 1): approximately 30 times | Ames test (Ames test): nongenotoxic | AUC(0-inf) at 24 h ([6]; IRC, in vivo): 5040 ng·h/mL | AUC(0-t) ([6]; IRC, in vivo): 4940 ng·h/mL | Cmax at 24 h ([6]; IRC, in vivo): 1970 ng/mL | Tmax at 24 h ([6]; IRC, in vivo): 0.5 h | half-life at 24 h ([6]; IRC, in vivo): 1.5 h | MRT inf at 24 h ([6]; IRC, in vivo, read-out: MRT 0 → ∞): 2.39 h | CL [6]: 16.5 mL/min/kg | Vd [6]: 2.15 L/kg | peak value (Cmax) relative to that of 1 [6]: about 60% | GI50 (COLO 320DM cells [7]; Homo sapiens, COLO 320DM, 120 h, read-out: COLO 320DM cells GI50, MTS, 5 days): 10.1 nM | COLO 320DM cells GI25 (COLO 320DM cells [7]; MTS, 5 days): 2.5 nM | GI50 (COLO 320DM cells [7]; read-out: COLO 320DM cells GI50, MTS, 5 days): 10 nM | effect of treatment on RKO cell viability (RKO cells; APC wild-type control colon cancer line): only modestly affected | GI50 (RKO cells; Homo sapiens, RKO, 120 h, read-out: RKO cells GI50): > 10000 nM | IC50 (PARP12): > 10000 nM | CYP induction (human PXR) (human PXR): nonactivator ^b ^c | IC50 (PARP10): > 10000 nM | IC50 (CYP3A4): > 25000 nM | microsomal CLint at 1 h [8]: 18 µL/min/mg

— publication PMC8713164, “Development of a 1,2,4-Triazole-Based Lead Tankyrase Inhibitor: Part II” (Journal of Medicinal Chemistry, 2021)
